# Source: PubChem BioAssay (NCI)
# “And” between values parts separate entries of the source, which are not always exact repeats. Equal entries are not always repeated.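 Dose response: 5 concentrations. Exposure: 48 h. Format: 96-well plates. Endpoint: linear interpolation; highest concentration if not reached. Abbreviation: GI50, concentration required for 50% inhibition of growth. TGI marks complete inhibition of growth.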
# Tests used:
# Test in all cases: NCI tumour cell line growth inhibition, 48 h
# MDA-MB-231 breast = test system: MDA-MB-231 breast
# COLO 205 colon = test system: COLO 205 colon
# A549 NSCLC = test system: A549 NSCLC
# HCT-116 colon = test system: HCT-116 colon
# MDA-MB-435 = test system: MDA-MB-435
# ACHN renal = test system: ACHN renal
# EKVX NSCLC = test system: EKVX NSCLC
SMILES,GI50 (MDA-MB-231 breast),TGI (MDA-MB-231 breast) [µM],GI50 (COLO 205 colon) [µM],TGI (COLO 205 colon),GI50 (A549 NSCLC) [µM],TGI (A549 NSCLC),GI50 (HCT-116 colon) [µM],TGI (HCT-116 colon),GI50 (MDA-MB-435) [µM],TGI (MDA-MB-435) [µM],GI50 (ACHN renal),TGI (ACHN renal),GI50 (EKVX NSCLC) [µM],TGI (EKVX NSCLC) [µM]
CCCCCCCCCCCCCCCCCCNC(=O)[C@H]1CSC(c2cccs2)N1 (stereo not given in full),0.826 µM,1.59,> 50,> 50 µM,1.69,> 50 µM,0.945,1.8 µM,0.77,1.53,30.9 µM,> 50 µM,,
C=C1CC2(OC1=O)C(=O)N(CCCN1C(=O)C3(CC(=C)C(=O)O3)c3ccccc31)c1ccccc12 (stereo not given),1.65 µM,3.43,0.52,2.03 µM,10.4,24 µM,1.84,3.75 µM,1.84,4.2,1.15 µM,2.36 µM,13.6,26.7
OB1OCc2cc(/C=C/c3cccc(C(F)(F)F)c3)ccc21,2.62 µM,11.1,2.31,> 100 µM,0.695,19.6 µM,0.89,11.8 µM,5.29,> 100,0.332 µM,1.34 µM,3.65,> 100
Cc1cc(Nc2nc(SCc3ccc(C(=O)Nc4ccc(F)cc4N)cc3)nn3cccc23)n[nH]1,0.854 µM,> 100,,,0.886,36.8 µM,0.494,20.4 µM,,,1.24 µM,13 µM,0.919,55.9
c1ccc(Cn2cnc3ccc(-c4nc(-c5ccc6c(c5)ncn6C5CCCCC5)cn5ccnc45)cc32)cc1,,,,,2.33,4.97 µM,,,,,3.08 µM,> 100 µM,,
COc1ccccc1/C=C/C(=O)/C=C/c1ccccc1O,1.67 µM,4.26,1.11,2.49 µM,1.27,3.73 µM,0.174,0.379 µM,1.51,3.81,1.36 µM,2.66 µM,1.75,5.63
CCC1=C[C@@H]2CN(C1)Cc1c([nH]c3ccccc13)[C@@](C(=O)OC)(c1cc3c(cc1OC)N(C)[C@H]1[C@@](O)(C(=O)OC)[C@H](OC(C)=O)[C@]4(CC)[C@@H]5C[C@@H]5CN5CC[C@]31[C@@H]54)C2,< 0.005 µM and 0.0335 µM,,< 0.005,0.00546 µM and 0.0282 µM,< 0.005,5.95 µM and 12.2 µM,< 0.005,5.18 µM and 13 µM,,,0.0191 µM and 0.168 µM,7.79 µM and 26.2 µM,,
CCCCCCCCCCCC[n+]1ccccc1 (tested in a mixture with another compound),1.22 µM,3.37,0.404,1.52 µM,1.68,4.43 µM,0.548,2.62 µM,0.678,2.47,2.25 µM,14.1 µM,0.428,5.13
O=C(/C=C/c1ccccc1)CC(c1ccccc1)N1CCOCC1 (stereo not given),2.64 µM,6.95,2.45,5.64 µM,11.7,29 µM,1.15,2.37 µM,1.91,4.58,2.03 µM,4.4 µM,9.52,22.3
Cc1ncc(C(=O)Nc2ccc(CN3CCN(C)CC3)c(C(F)(F)F)c2)cc1C#Cc1cnc(NC2CC2)c2ncccc12,0.582 µM,1.12,1.36,4.51 µM,0.682,1.33 µM,0.578,1.07 µM,0.513,0.963,0.577 µM,1.04 µM,0.659,1.21
CCSc1nc(N)c2cn[nH]c2n1,20.2 µM,69.8,23.5,53.9 µM,44.6,> 100 µM,30.5,> 100 µM,30.8,> 100,31.3 µM,> 100 µM,51.4,> 100
NC(=O)C1(N2CCCCC2)CCN(CCCC(=O)c2ccc(F)cc2)CC1,3.56 µM,> 71.8,0.715,6.89 µM,10.4,> 100 µM,0.777,> 100 µM,0.07,0.396,12.2 µM,> 100 µM,6.01,> 100
CCOC1Oc2ccccc2-c2oc(=O)c(Sc3ccc(C)cc3)cc21 (stereo not given),16.9 µM,67.7,25.2,> 100 µM,19.3,59 µM,,,23.6,> 100,28.8 µM,> 100 µM,42.8,> 100
c1ccc2nc3c(cc4ccccn43)nc2c1,29.8 µM,> 100,64,> 100 µM,77.4,> 100 µM,23.5,> 100 µM,> 100,> 100,60.2 µM,> 100 µM,18.9,> 100
C=C(CN1CCc2ccccc2C1)c1ccc(C(=O)Nc2ccccc2N)cc1,0.973 µM,3.15,1.52,7.4 µM,2.05,> 50 µM,1.93,> 23.2 µM,1.47,4.23,1.01 µM,3.5 µM,5.68,> 50
Cn1c2ccccc2c2c(=O)c3ccccc3[nH]c21,87.1 µM,> 100,55.8,> 100 µM,26.9,> 100 µM,17.6,52.9 µM,70.2,> 100,31.1 µM,> 100 µM,44.1,> 100
O=C(c1ccc2ccccc2c1)c1c(C(F)(F)F)n([O-])c2ccc(Cl)cc2[n+]1=O,1.59 µM,3.21,1.34,2.73 µM,1.71,3.21 µM,1,2.33 µM,1.66,3.17,1.63 µM,2.98 µM,1.74,3.17
